In patent publication US20060003936A1, “Method for modulating the production of a selected protein in vivo” (priority 2002, published 2006):

Columns and labels:
[1] = test system: DHFR-EGFP fusion protein; assay: Fluorescence microscopy of EGFP expression in transfected GP+envAM12 cells; type: cell-based
Description: Transfections of parental GP+envAM12 cells (Markowitz et al., Virology 167: 400-405 (1988)) with EGFP-containing SFG-plasmids was carried out using DOTAP transfecting reagent (N-{1-(2,3-dioleyloxy)propyl]-N,N,N,-trimethylammonium methyl sulfate, Roche Molecular Biochemicals). Cells transfected with EGFP-expressing vectors were cultrued for at least 12 days and subsequently sorted for EGFP-positive cells using an FACS Vantage SE cell sorter (Becton Dickinson). For fluorescence microscopy, these cells were grown in T25 flasks. Confluent cells were cultured in fresh media with or without TMTX. Fluorescent images of randomly selected areas of the monolayer were taken with a Zeiss Axlovert S100 microscope.

[2] = test system: HCT-8 cells (8LT, 8HT, 8LT-CT); assay: GCV and TMTX cytotoxicities on transduced HCT-8 cells; type: cell-based, human
Description: Bulk transduction of HCT-116 and HCT-8 was carried out with an moi of 30 for 24 hours or an moi of 2.5 for 2 hours to produce cell lines 116HT and 116LT, and 8HT and 8LT, respectively.
GCV amd TMTX cytotoxicities were measured on the transduced cells.

[3] = test system: DHFR-HSV1 TK fusion protein; assay: DHFR-HSV1 TK fusion protein level in tumor tissue of treated rats; type: in vivo, rat; settings: rats with flank tumors; 10 mg/kg once daily for three days or single 100 mg/kg; vs water-treated controls
Description: Rats bearing flank tumors were treated with 10 mg/kg of TMTX for three days (once daily), or with a single high dose of 100 mg/kg. The levels of DHFR-HSV1 TK fusion protein in the tumor tissue of antifolate treated rats, as well as in water-treated controls were analyzed. […] The mean increase was at least 2-fold.

[4] = test system: tumors derived from 8LT-CT cells; assay: PET imaging of 124I-FIAU uptake in transduced tumors; type: in vivo, rat; settings: three cycles of 10 mg/kg TMTX, three times daily for three days per cycle, 7 treated and 7 control rats
Description: In a second set of experiments, tumors derived from 8LT-CT and parental HCT-8 cells were evaluated by in vivo imaging. Before the imaging, each animal received three cycles of 10 mg/kg of TMTX, three times daily for three days per cycle. Using PET and the tracer ^124I-FIAU an increase in tumor-signal intensity in TMTX-treated rats was observed.

[5] = molecular target: T1, DHFR-HSV1 TK fusion protein (Homo sapiens, UniProt P00374, F32S/L23F); assay: Western blot of DHFR-HSV-TK fusion protein in transduced colon cancer cells treated with antifolate; type: cell-based
T1 construct: HSV1 thymidine kinase (fusion partner); expressed in transfected cells; host or cells: HCT-8, HCT-116 and C85 human colorectal cancer cells, retrovirally transduced with SFG-DHFR/HSV-TK
T1 sequence (P00374 other isoform, or with tags, fused parts or gaps L23F/F32S): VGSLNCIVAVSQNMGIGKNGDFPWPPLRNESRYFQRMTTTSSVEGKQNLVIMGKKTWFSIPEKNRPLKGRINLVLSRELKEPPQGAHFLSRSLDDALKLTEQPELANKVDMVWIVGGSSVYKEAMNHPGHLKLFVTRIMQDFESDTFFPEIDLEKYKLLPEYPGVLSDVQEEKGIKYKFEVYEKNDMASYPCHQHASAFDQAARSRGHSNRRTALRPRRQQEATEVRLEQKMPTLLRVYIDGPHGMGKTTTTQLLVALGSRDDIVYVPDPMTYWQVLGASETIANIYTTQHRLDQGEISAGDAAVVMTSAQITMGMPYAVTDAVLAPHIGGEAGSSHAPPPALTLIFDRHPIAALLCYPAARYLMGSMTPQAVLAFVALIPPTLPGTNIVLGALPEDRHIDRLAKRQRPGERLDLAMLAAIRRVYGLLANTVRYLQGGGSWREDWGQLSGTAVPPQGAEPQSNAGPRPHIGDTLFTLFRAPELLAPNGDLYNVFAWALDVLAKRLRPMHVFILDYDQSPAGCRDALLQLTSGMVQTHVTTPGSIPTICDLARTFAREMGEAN
Description: (§1) Retrovirus-producing cell lines were generated by transfection of DHFR-HSV1-TK plasmid in parental GP+envAM12 cells. Transfection was performed three times at cell densities of 30%, 50% and 75% using Superfect (Qiagen, Chatsworth, Calif.) as described by the manufacturer. Clones of the retrovirus were selected in 150 nM TMTX. Viral titers were determined against NIH 3T3 cells. Retrovirus-producing AM12V cells were grown in medium without antifolate to a density of 60-80%; the day before infection, the mdeium was changed. Viral transduction was performed by infecting colon cancer cells plated 48 hours before infection in 10 cm dishes. Four single virus exporsures with the desired multiplicity of infection (moi), each of 6 hour duration, were carried out. For each single exposure, fresh AM12V supernatant was filtered through a 0.45 μm cellulose acetate filter and supplemented with polybrene (8 μg/ml). The 2-hour viral transduction was performedin 6 well plates.
(§2) The transduced cells were treated with varying amounts of TMTX (10, 100 and 1000 μM) and levels of fusion protein were detected by Western blotting using either an anti-HSV-TK antibody or an anti-human DHFR antibody.
Three colorectal cancer cells lines (HCT-8, HCT-116 and a cell line, C85, recently established from a patient with liver metastasis) were transduced with the SFG-DHFR/HSV-TK fusion vector of Example 1. Transduction was verified by PCR using transgene specific primers and elevation of DHFR-HSVTK mRNA and protein expression.

[6] = test system: HCT-116 cells (116LT, 116HT); assay: GCV and TMTX cytotoxicities on transduced HCT-116 cells; type: cell-based, human
Description: FIGS. 7A-D show GCV sensitivty and TMTX resisatnce in parental, tranduced and TMTX exposed colon cancer cells of the HCT-116 and HCT-8 cells lines. Bulk transduction of HCT-116 and HCT-8 was carried out with an moi of 30 for 24 hours or an moi of 2.5 for 2 hours to produce cell lines 116HT and 116LT, and 8HT and 8LT, respectively. Successful gene transfer and transgene expression was confirmed by PCR and Western blotting. […] Infection of 8LT was not detectable with the assay used.
GCV amd TMTX cytotoxicities were measured on the transduced cells. […] (FIGS. 7A and C). This finding correlates with observed levels of fusion protein expression in these cells.

[7] = test system: HCT-8, HCT-116 and C85 colorectal cancer cells transduced with SFG-DHFR/HSV-TK; assay: GCV sensitivity of transduced colon cancer cells; type: cell-based, human
Description: as §1, §2
Three colorectal cancer cells lines (HCT-8, HCT-116 and a cell line, C85, recently established from a patient with liver metastasis) were transduced with the SFG-DHFR/HSV-TK fusion vector of Example 1. […]

## COc1cc(NCc2ccc3nc(N)nc(N)c3c2C)cc(OC)c1OC [TMTX, trimetrexate]
[1]; DHFR-EGFP fusion vector, 1 μM, durable at 24 and 48 hours
  expression of DHFR-EGFP fusion protein: increased
[1]; plasmids expressing DHFR and EGFP separated by IRES, or just EGFP
  expression of EGFP: not increased
[2]; 8HT cells
  TMTX cytotoxicity: TMTX resistance
[3]
  mean increase of DHFR-HSV1 TK fusion protein in tumor tissue: at least 2 fold
[4]
  124I-FIAU accumulation in transduced tumor tissue vs untreated controls: 2.6 fold
[5]; concentration range 10^−2 to 1 μM
  induction of expression of the DHFR-HSV1 TK fusion protein: dose-dependent
[5]; high concentrations (1000 μM), without an increase in mRNA
  fusion protein levels: transient increase in fusion protein levels
[5]; transduced colon cancer cells, TMTX 10, 100 and 1000 μM, anti-HSV-TK or anti-human DHFR antibody
  fusion protein expression (Western blot): upregulation of fusion protein expression was observed
[6]; 116HT cells
  TMTX resistance compared with parental cell line: higher
[6]; 116LT cells
  TMTX resistance compared with parental cell line: moderate

## Nc1nc(O)c2ncn(COC(CO)CO)c2n1 [GCV, gancyclovir]
[2]; 8HT cells
  GCV cytotoxicity: GCV sensitivity
[2]; HCT-8 cells treated chronically with increasing concentrations of TMTX (8LT-CT)
  increase in GCV sensitivity: 250 fold
[7]; transduced cells after cycles of nine day exposures to increasing TMTX, vs non-transduced cells
  increase in sensitivity to GCV: 250 fold
[7]; transduced cells compared to unselected or untransduced cells
  sensitivity to GCV: increased sensitivity
[6]; 116HT cells
  GCV cytotoxicity compared with parental cell line: higher
[6]; 116LT cells
  GCV cytotoxicity compared with parental cell line: moderate

## COc1cc([C@@H]2c3cc4c(cc3[C@@H](O[C@@H]3O[C@@H]5CO[C@@H](C)O[C@H]5[C@H](O)[C@H]3O)[C@H]3COC(=O)[C@H]23)OCO4)cc(OC)c1O [etoposide]
[5]; treatment of cells, concentration not given
  induction of the fusion protein: did not cause induction
